Results from patent US6465663B2, “O- or S-substituted tetrahydronaphthalene derivatives having retinoid and/or retinoid antagonist-like biological activity” (Allergan, Inc., priority 1996, dated 2002).

Tested on: ornithine decarboxylase (ODC)
Test: ODC assay: inhibition of TPA induction of ornithine decarboxylase activity
Type: in vivo
Details: for IC60: concentration of the test compound which causes 60% inhibition in the ODC assay
Excerpt: A classic measure of retinoic acid activity involves measuring the effects of retinoic acid on ornithine decarboxylase. […] That reference discloses that ornithine decarboxylase (ODC) activity increased precedent to polyamine biosynthesis. It has been established elsewhere that increases in polyamine synthesis can be correlated or associated with cellular proliferation. Thus, if ODC activity could be inhibited, cell hyperproliferation could be modulated. Although all cases for ODC activity increases are unknown, it is known that 12-0-tetradecanoylphorbol-13-acetate (TPA) induces ODC activity. Retinoic acid inhibits this induction of ODC activity by TPA.

Compound	IC60 [nmols]	IC80 (concentration of the test compound which causes 80% inhibition in the ODC assay, cell marked (IC80))
CCOC(=O)c1ccc(N=Nc2ccc3c(c2)C(OCOC)CCC3(C)C)cc1 (racemic) [Compound D6, (+/−) Ethyl 4-[(5,5-dimethyl-8-(methoxymethyloxy)-5,6,7,8-tetrahydronaphthalen-2-yl)azo]benzoate]	1.9	
CCOC(=O)c1ccc(NC(=O)c2ccc3c(c2)C(OC2CCCCO2)CCC3(C)C)cc1 (single isomer, unassigned) [Compound E72b, Ethyl 4-[5,6,7,8-tetrahydro-8(R or S)-(2′(S or R)tetrahydropyranoxy)5,5-dimethylnaphthalene-2-yl)carboxamido]benzoate]	18	
CCOC(=O)c1ccc(/C=C/c2ccc3c(c2)C(=O)CCC3(C)C)cc1 [Compound A2, Ethyl (E)-4-[2-(5,6-dihydro-5,5-dimethyl-naphthalen-8(7H)-one-2-yl)ethenyl]-benzoate]	27	
CCON=C1CCC(C)(C)c2ccc(/C=C/c3ccc(C(=O)OCC)cc3)cc21 [Compound A5, Ethyl (E)-4-[2-(5,5-dimethyl-5,6,-dihydro-8(7H)-anti-(O-ethyl oxime)-naphthalen-2-yl)ethenyl]-benzoate]	10.3	
CCOC(=O)c1ccc(/C=C/c2ccc3c(c2)C(Sc2ccccc2)=CCC3(C)C)cc1 [Compound A16, Ethyl (E)-4-[2-(5,6-dihydro-5,5-dimethyl-8-(phenylthio)-naphthalenyl)ethenyl] benzoate]		4.3 (IC80) nmols
CCOC(=O)c1ccc(/C=C/c2ccc3c(c2)C(C2SCCCS2)CCC3(C)C)cc1 (centres unmarked) [Compound A23, Ethyl (E)-4-[-2-(5,6,7,8-tetrahydro-5,5-dimethyl-8-(1,3-dithian-2-yl)naphthalen-2-yl)ethenyl] benzoate]	43.7	
CCOC(=O)c1ccc(/C=C/c2ccc3c(c2)C(=C(CC)CC)CCC3(C)C)cc1 [Compound A27, Ethyl (E)-4-[2-(7,8-dihydro-5,5-dimethyl-8(7H)-(pentyliden-3-yl)-naphthalen-2-yl)ethenyl]-benzoate]	0.7	
CCOC(=O)/C=C(C)/C=C/C=C(\C)c1ccc2c(c1)C(OS(=O)(=O)C(F)(F)F)=CCC2(C)C [Compound C14, Ethyl 7-[4,4-dimethyl-3,4,-dihydronaphthalen-1-trifluoromethylsulfonyloxy-7-yl]-3,7-dimethyl-hept-2(E), 4(E), 6(E)trienoate]	4	
CCOC(=O)/C=C(C)/C=C/C=C(\C)c1ccc2c(c1)C(c1cccs1)=CCC2(C)C [Compound C15, Ethyl 7-[4,4-dimethyl-3,4,-dihydronaphthalen-1-(2-thienyl)-7-yl]-3,7-dimethyl-hept-2(E), 4(E), 6(E)trienoate]	14.5	
CCON=C1CCC(C)(C)c2ccc(/C(C)=C/C=C/C(C)=C/C(=O)OCC)cc21 [Compound C22b, Ethyl 7-[4,4-dimethyl-3,4-dihydro-1(2H)-anti-(O-ethyl oxime)-naphth-7-yl]3,7-dimethyl-hepta-2(E),4(E),6(E)-trienoate]	10	
CCOC(=O)c1ccc(/N=N/c2ccc3c(c2)/C(=N/OC)CCC3(C)C)cc1 [Compound D3, Ethyl 4-[(8(7H)-anti-(O-methyl oxime)-5,5-dimethyl-5,6-dihydronaphthalen-2-yl)azo]benzoate]	8.4	

Further lines, with some results ahead:

IC60 [nmols]	Compound	IC80 (concentration of the test compound which causes 80% inhibition in the ODC assay, cell marked (IC80))
3.1	CCOC(=O)c1ccc(OC(=O)c2ccc3c(c2)C(OC2CCCCO2)CCC3(C)C)cc1 (single isomer, unassigned) [Compound E56a, Ethyl 4-[5,6,7,8-tetrahydro-8(R or S)-(2′(R or S)-tetrahydropyranoxy)-5,5-dimethyl-2-napthoyloxy]benzoate]	
24.7	CCOC(=O)c1ccc(OC(=O)c2ccc3c(c2)C(=C(C)C)CCC3(C)C)cc1 [Compound E15, Ethyl 4-[{(5,5-dimethyl-8(7H-(propyliden-2-yl)-5.6-dihydronaphthalen-2-yl)}carbonyl}oxy]benzoate]	
88.4	CCOC(=O)c1ccc(NC(=O)c2ccc3c(c2)C(=C(C)C)CCC3(C)C)cc1 [Compound E16]	
